The results in this text go back to paper PMC9969401, “Discovery of 2-(3-Benzamidopropanamido)thiazole-5-carboxylate Inhibitors of the Kinesin HSET (KIFC1) and the Development of Cellular Target Engagement Probes” (Journal of Medicinal Chemistry, 2023).

This assay addresses T1, recombinant full-length HSET (Homo sapiens, UniProt Q9BW19).
T1 construct: 5 nM full-length human N-terminal His-tag HSET; His-tag (N)
T1 sequence (Q9BW19 1-673): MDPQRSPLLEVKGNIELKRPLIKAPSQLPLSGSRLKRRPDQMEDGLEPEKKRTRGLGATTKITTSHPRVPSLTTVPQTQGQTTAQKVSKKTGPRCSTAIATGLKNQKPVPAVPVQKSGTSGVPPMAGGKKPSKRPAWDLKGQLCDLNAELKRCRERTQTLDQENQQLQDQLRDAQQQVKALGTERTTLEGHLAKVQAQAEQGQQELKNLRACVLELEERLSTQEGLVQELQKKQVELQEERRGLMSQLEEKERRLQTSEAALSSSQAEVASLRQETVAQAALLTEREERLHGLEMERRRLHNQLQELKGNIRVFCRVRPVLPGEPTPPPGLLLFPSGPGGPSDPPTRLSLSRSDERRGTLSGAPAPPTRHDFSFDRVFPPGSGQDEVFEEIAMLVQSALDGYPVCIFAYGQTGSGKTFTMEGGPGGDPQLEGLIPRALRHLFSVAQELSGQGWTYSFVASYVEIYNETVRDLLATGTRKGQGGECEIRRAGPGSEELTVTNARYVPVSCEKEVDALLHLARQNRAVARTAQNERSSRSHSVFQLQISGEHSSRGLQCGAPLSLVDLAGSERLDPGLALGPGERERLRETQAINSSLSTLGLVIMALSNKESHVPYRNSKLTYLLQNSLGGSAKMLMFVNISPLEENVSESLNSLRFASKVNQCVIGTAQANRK
As to the kind of experiment: ADP-Glo HSET assay (3 μM ATP), microtubule-stimulated ATPase. Format: biochemical. Particulars: for HSET inhibitory activity (in words): HSET ADP-Glo. Here is the method:
The HSET or Eg5 ATPase activity was measured using the ADP-Glo Kinase Assay kit (Promega, V9102). The assays were run using final concentrations of 5 nM full-length human N-terminal His-tag HSET or 4 nM GST-tagged Eg5 motor domain protein (Cytoskeleton, EG01) and an assay buffer containing 20 mM HEPES pH 6.8, 10 mM MgCl2, 0.25 mM EGTA, 0.4 mM Triton X-100, and 1 mM DTT. Preformed microtubules (Universal Biologicals Cambridge, bovine MT001-XL, or porcine MT002-XL), which were reconstituted in 15 mM PIPES pH 7, 1 mM MgCl2, and 20 μM paclitaxel, were present at a final assay concentration of 70 μg/mL. A reaction volume of 5 μL was used in Proxiplate 384 plus white assay plates (PerkinElmer, 6008280). To measure compound inhibition, 100 nL of compound dissolved in DMSO or DMSO alone was preincubated with the HSET and microtubules for 10 min before 3 μM Ultra-Pure ATP was added to start the ATPase reaction for the 3 μM ATP HSET assay. For the 500 μM ATP HSET assay, the addition of 500 μM Ultra-Pure ATP was used. For the Eg5 ATPase assay, 4.8 μM Ultra-Pure ATP was used. All reactions were incubated at 25 °C for 80 min and then stopped by the addition of 5 μL of the ADP-Glo reagent. 10 μL of Kinase Detection Reagent was then added after a further 45 min of incubation. The luminescence was read after 45 min on a PheraStar FSX plate reader (BMG Labtech). The data processing was performed using Dotmatics Studies software package. Percentage inhibition was determined based on normalization to high controls (0% inhibition, all reagents with 100 nL of DMSO alone) and low controls (100% inhibition […], without HSET). The IC50 values for each compound were determined using a four-parameter logistic curve fit of % inhibition versus concentration.

The mark [1] stands for this setting: LE = −1.4Log(IC50 [M])/number of non-hydrogen atoms (Table 1).
The mark [2] stands for this setting: LLE = −Log(IC50 [M]) – cLogP (MoKa) (Table 1).
The mark [3] stands for this setting: preformed microtubules, 3 μM ATP, mean (±SD) n ≥ 3, >200 from a single determination (Table 1), read-out: HSET ADP-Glo IC50.
Setting [4] is: preformed microtubules, 3 μM ATP, mean (±SD) n ≥ 3, >200 from a single determination (Table 2), read-out: HSET ADP-Glo IC50.
Setting [5] is: LE = −1.4Log(IC50 [M])/number of non-hydrogen atoms (Table 2).
[6] abbreviates: LLE = −Log(IC50 [M]) – cLogP (MoKa) (Table 2).

Read-outs that look alike come from different tables or passages of the source.

Regarding `CCOC(=O)c1sc(NC(=O)CCNC(=O)c2cccc(-c3ccccc3)c2)nc1C` [Compound 12, Ethyl 2-(3-([1,1′-Biphenyl]-3-carboxamido)propanamido)-4-methylthiazole-5-carboxylate], the LE under setting [1] amounted to 0.25. The LLE under setting [2] was 1.2. Also, the IC50 under setting [3] worked out at 2.44 µM.
With `CCOC(=O)c1sc(NC(=O)CCCNC(=O)c2cccc(-c3noc(C)n3)c2)nc1C` [Compound 22, Ethyl 4-Methyl-2-(4-(3-(5-methyl-1,2,4-oxadiazol-3-yl)benzamido)butanamido)thiazole-5-carboxylate], the “HSET inhibitory activity (in words)” value is given as “abolished the HSET activity”. Moreover, under setting [4], the IC50 is above 200 µM.
On to `CCOC(=O)c1sc(NC(=O)CCNC(=O)c2cccc(CC)c2)nc1C` [Compound 5, Ethyl 2-(3-(3-Ethylbenzamido)propanamido)-4-methylthiazole-5-carboxylate], for which, under setting [1], the LE came out at 0.29. Also, the LLE under setting [2] stood at 2.2. In addition, the IC50 under setting [3] was determined as 2.32 µM.
`CCOC(=O)c1sc(NC(=O)CCNC(=O)c2cccc(-c3nnc(C)o3)c2)nc1C` [Compound 16, Ethyl 4-Methyl-2-(3-(3-(5-methyl-1,3,4-oxadiazol-2-yl)benzamido)propanamido)thiazole-5-carboxylate]: the LE under setting [1] is reported as 0.3. Also, the LLE under setting [2] is listed as 4.4. Moreover, the IC50 under setting [3] amounted to 0.26 µM.
Turning to `CCOC(=O)c1sc(NC(=O)CNC(=O)c2cccc(-c3noc(C)n3)c2)nc1C` [Compound 21, Ethyl 4-Methyl-2-(2-(3-(5-methyl-1,2,4-oxadiazol-3-yl)benzamido)acetamido)thiazole-5-carboxylate], the “HSET inhibitory activity (in words)” value is “abolished the HSET activity”. Also, the IC50 under setting [4] is above 200 µM.
Take `CCOC(=O)c1sc(NC(=O)CCNC(=O)c2ccccc2C)nc1C` [Compound 3, Ethyl 4-methyl-2-(3-(2-methylbenzamido)propanamido)thiazole-5-carboxylate]: the inhibition at 200 µM (200μM compound, 3 μM ATP, single determination) came out at 52%. The “fold reduction in HSET potency” value (relative to 2) is “seventy-fold”.
For `CCOC(=O)c1nc(NC(=O)CCNC(=O)c2cccc(-c3noc(C)n3)c2)cn1C` [Compound 29, Ethyl 1-Methyl-4-(3-(3-(5-methyl-1,2,4-oxadiazol-3-yl)benzamido)propanamido)-1H-imidazole-2-carboxylate], the “HSET inhibitory activity (in words)” value is listed as “no HSET inhibition”. The IC50 under setting [4] is above 200 µM.
For `CCOC(=O)c1sc(NC(=O)C[C@H](C)NC(=O)c2cccc(-c3noc(C)n3)c2)nc1C` [Compound 30, Ethyl 4-Methyl-2-[[(3S)-3-[[3-(5-methyl-1,2,4-oxadiazol-3-yl)benzoyl]amino]butanoyl]amino]thiazole-5-carboxylate], the LE under setting [5] came out at 0.32. Moreover, under setting [6], the LLE came to 4.1. Moreover, the IC50 under setting [4] amounted to 0.061 µM.
For the compound `Cc1csc(NC(=O)CCNC(=O)c2cccc(-c3noc(C)n3)c2)n1` [Compound 20, 3-(5-Methyl-1,2,4-oxadiazol-3-yl)-N-(3-((4-methylthiazol-2-yl)amino)-3-oxopropyl)benzamide], the IC50 under setting [4] is above 200 µM. Where the note is “relative to 13”, the “fold reduction in HSET potency” value is on record as 3000 fold.
`CCOC(=O)c1sc(NC(=O)CCNC(=O)c2cccc(Cl)c2)nc1C` [Compound 6, Ethyl 2-(3-(3-Chlorobenzamido)propanamido)-4-methylthiazole-5-carboxylate]: the “HSET inhibitory activity (in words)” value is on record as “ablated the activity”. The IC50 under setting [3] is above 200 µM.
`CCOC(=O)c1ccc(NC(=O)CCNC(=O)c2cccc(-c3noc(C)n3)c2)nc1C` [Compound 27, Ethyl 2-Methyl-6-(3-(3-(5-methyl-1,2,4-oxadiazol-3-yl)benzamido)propanamido)nicotinate]: the LE under setting [5] turned out to be 0.22. In addition, the LLE under setting [6] turned out to be 2.5. Moreover, the IC50 under setting [4] was determined as 11.5 µM. Also, for the setting “relative to 13”, the “fold reduction in HSET potency” value was “greater than 180 fold”.
On to `CCOC(=O)c1sc(NC(=O)CCNC(=O)C2CCCC(C)C2)nc1C` (stereo not shown) [Compound 10, Ethyl 4-Methyl-2-(3-(3-methylcyclohexane-1-carboxamido)propanamido)thiazole-5-carboxylate], for which the “HSET inhibitory activity (in words)” value is recorded as “ablated the activity”. In addition, under setting [3], the IC50 was above 200 µM.
Regarding `CCOC(=O)c1cnc(NC(=O)CCNC(=O)c2cccc(-c3noc(C)n3)c2)s1` [Compound 19, Ethyl 2-(3-(3-(5-Methyl-1,2,4-oxadiazol-3-yl)benzamido)propanamido)thiazole-5-carboxylate], the inhibition at 4 µM (4μM compound, 3 μM ATP) came to 50%. For the setting “relative to 13”, the “fold reduction in HSET potency” value is 65 fold. The IC50 (supplementary CSV, read-out: HSET ADP-Glo IC50) was above 4 µM.
Regarding `CCOC(=O)c1sc(NC(=O)CCNC(=O)c2cccc(-c3noc(CC)n3)c2)nc1C` [Compound 14, Ethyl 2-(3-(3-(5-Ethyl-1,2,4-oxadiazol-3-yl)benzamido)propanamido)-4-methylthiazole-5-carboxylate], the LE under setting [1] was 0.25. Moreover, under setting [2], the LLE was determined as 2.8. The IC50 under setting [3] was 2.1 µM. In addition, the “fold reduction in HSET potency” value (relative to 13) is given as 33 fold.
For `CCOC(=O)c1sc(NC(=O)CCNC(=O)c2ccccc2)nc1C` [Compound 9, Ethyl 2-(3-Benzamidopropanamido)-4-methylthiazole-5-carboxylate], the “HSET inhibitory activity (in words)” value is “ablated the activity”. The IC50 under setting [3] was above 200 µM.
Regarding `CCOC(=O)c1sc(NC(=O)CCN(C)C(=O)c2cccc(-c3noc(C)n3)c2)nc1C` [Compound 24, Ethyl 4-Methyl-2-(3-(N-methyl-3-(5-methyl-1,2,4-oxadiazol-3-yl)benzamido)propanamido)thiazole-5-carboxylate], the LE under setting [5] is given as 0.19. Moreover, the LLE under setting [6] amounted to 2.1. Further, under setting [4], the IC50 stood at 44.4 µM. Besides, the “fold reduction in HSET potency” value (relative to 13) is 700 fold.
`CCOC(=O)c1sc(NC(=O)CCNC(=O)c2cccc(OC)c2)nc1C` [Compound 11, Ethyl 2-(3-(3-Methoxybenzamido)propanamido)-4-methylthiazole-5-carboxylate]: under setting [1], the LE stood at 0.28. In addition, the LLE under setting [2] was 2.8. Further, under setting [3], the IC50 came out at 3.54 µM.
In the case of `CCOC(=O)c1sc(NC(=O)CCNC(=O)c2ccc(C)cc2)nc1C` [Compound 4, Ethyl 4-Methyl-2-(3-(4-methylbenzamido)propanamido)thiazole-5-carboxylate], the IC50 worked out at 13 µM (3 μM ATP, curve plateaued, read-out: mean concentration observed at 50% inhibition (HSET ADP-Glo)) and 4.73 µM under setting [3]. Moreover, under setting [1], the LE is 0.29. Also, the LLE under setting [2] came to 2.2.
Consider `CCOC(=O)c1sc(NC(=O)C[C@@H](C)NC(=O)c2cccc(-c3noc(C)n3)c2)nc1C` [Compound 31, Ethyl 4-Methyl-2-[[(3R)-3-[[3-(5-methyl-1,2,4-oxadiazol-3-yl)benzoyl]amino]butanoyl]amino]thiazole-5-carboxylate], for which the LE under setting [5] was 0.29. Further, the LLE under setting [6] was found to be 3.4. The IC50 under setting [4] turned out to be 0.288 µM.
In the case of `CCOC(=O)c1sc(NC(=O)CCNC(C)=O)nc1C` [Compound 8, ethyl 2-(3-acetamidopropanamido)-4-methylthiazole-5-carboxylate], the “HSET inhibitory activity (in words)” value is “ablated the activity”. For the same compound, the IC50 under setting [3] was above 200 µM.
